Test results: patent US11992497B2 (priority 2021, dated 2024)

Columns and labels:
HCT116 [1] = assay: GI50 by clonogenic assay; assay type: cell-based; settings: Homo sapiens
Experimental: (§1) For colonogenic assay, the compounds were tested at 4 concentrations for 1 week or 2 weeks on 4 colon cancer cell lines. The compounds, concentrations, colon cancer cell line panel and end time point tested are the following: • CBG: 0 μM, 10 μM, 20 μM, 40 μM, and 80 μM. • Compound 1: 0 μM, 5 μM, 7.5 μM, 10 μM, and 20 μM. • Compound 2: 0 μM, 10 μM, 20 μM, 40 μM, and 80 μM. • Colon cancer cell line panel and end time point: SW620, HCT15, HCT116, 1 week; HT29, 2 weeks
(§2) Four colon cancer cell lines of SW620, HCT15, HT29, and HCT116 were included in the colon cancer cell line panel.
(§3) CBG, compound 1 and compound 2 were dissolved in DMSO at a concentration of 10 mM and stored at −20° C.
(§4) Evaluation of DM compounds treatment-induced growth inhibition was performed to determine the GI50 of four colon cancer cell lines with MTS assay or clonogenic assay. Each experiment was repeated in triplicate. In GraphPad Prism, data were log-transformed and fit with a nonlinear curve to calculate the GI50.
(§5) Clonogenic assay. cells were plated at 6 well plates at a density of 2,500 cells per well. After 24 hours, cells were treated with DM compounds at increasing concentrations or DMSO vehicle and incubated for 1 week or 2 weeks. Cells were then fixed and stained with 1% crystal violet (Sigma-Aldrich) solution. Quantification was performed using ImageJ. Each experiment was repeated in triplicate. In GraphPad Prism, data were log-transformed and fit with a nonlinear curve to calculate the GI50.

HCT15 [2] = assay: GI50 by clonogenic assay; assay type: cell-based; settings: Homo sapiens
Experimental: as §1, §2, §3, §4, §5

SW620 [3] = assay: GI50 by clonogenic assay; assay type: cell-based; settings: Homo sapiens
Experimental: as §1, §2, §3, §4, §5

HT29 [4] = assay: GI50 by clonogenic assay; assay type: cell-based; settings: Homo sapiens
Experimental: as §1, §2, §3, §4, §5

[5] = PK study of CBG, Compound 1 and Compound 2, PO or IP; assay type: in vivo, male Sprague Dawley rats; settings: CBG 30 mg/kg PO and IP; Compound 1 31.5 mg/kg PO; Compound 2 32.7 mg/kg PO
Experimental: This study evaluated the pharmacokinetics of (E)-2-(3,7-dimethylocta-2,6-dien-1-yl)-3-methoxy-5-pentylphenol (1) and (E)-2-(3,7-dimethylocta-2,6-dien-1-yl)-1,3-dimethoxy-5-pentylbenzene (2) following oral (PO) or intraperitoneal (IP) administration to male Sprague Dawley rats.
For the oral formulation the test article was added to the appropriate amount of Maisine and stirred until uniform. Next Labrasol was added to the formulation and allowed to stir until uniform. Finally, water will be slowly added to the stirring formulation to achieve the final volume.
For the IP formulation the test article was added to the appropriate amount of ethanol and stirred until uniform. Next, the appropriate amount of tween-20 was added to the stirred formulation. Finally, the appropriate amount of saline was slowly added to the stirred formulation to achieve the final volume.
Animals were fasted the evening prior to dosing with food returned at 4 h postdose, and the animals weighed on the morning of dose administration.
IP doses were administered via injection to the intraperitoneal region. PO doses were delivered into the stomach via syringe and gavage tube.
Blood was collected from via direct jugular stick or from the tail vein. Blood samples were kept on ice until being centrifuged at 3200 RPM for 10 minutes at ˜5° C. within 1 h of collection. Plasma was split into 2 cryovials in approximately equal volumes (0.05 mLs) and stored at −20° C.±5° C. until shipment.

HCT116 [6] = assay: GI50 by MTS assay; assay type: cell-based; settings: Homo sapiens, HCT-116
Experimental: (§6) For MTS assay, the compounds have been tested at 8 concentrations on 4 colon cancer cell lines for 48 hours. The compounds, concentrations and colon cancer cell line panel tested are the following: • CBG: 0 μM, 1.25 μM, 2.5 μM, 5 μM, 10 μM, 20 μM, 40 μM, and 80 μM. • Compound 1: 0 μM, 1.25 μM, 2.5 μM, 5 μM, 10 μM, 20 μM, 40 μM, and 80 μM. • Compound 2: 0 μM, 1.25 μM, 2.5 μM, 5 μM, 10 μM, 20 μM, 40 μM, and 80 μM. • Colon cancer cell line panel: SW620, HCT15, HT29, HCTl16
as §2, §3, §4
(§7) MTS assay. cells were plated at 96 well plates at a density of 1,000 cells per well. After 24 hours, cells were treated with DM compounds at increasing concentrations or DMSO vehicle and incubated for 48 hours. 20 μl of MTS reagent (Promega) was then added and incubated for 2 hours. The absorbance was measured with a microplate reader at 490 nm. Each experiment was repeated in triplicate. In GraphPad Prism, data were log-transformed and fit with a nonlinear curve to calculate the GI50.

HCT15 [7] = assay: GI50 by MTS assay; assay type: cell-based; settings: Homo sapiens, HCT-15
Experimental: as §6, §2, §3, §4, §7

SW620 [8] = assay: GI50 by MTS assay; assay type: cell-based; settings: Homo sapiens, SW-620
Experimental: as §6, §2, §3, §4, §7

HT29 [9] = assay: GI50 by MTS assay; assay type: cell-based; settings: Homo sapiens, HT-29
Experimental: as §6, §2, §3, §4, §7

CCCCCc1cc(O)c(C/C=C(\C)CCC=C(C)C)c(O)c1 [CBG, cannabigerol]
GI50 (HCT116 [1]; HCT-116, 168 h, HCT116 cells, 1 week, read-out: GI50 (clonogenic assay)): 17.4 ± 4.91 µM
GI50 (HCT116 [1]; HCT-116, clonogenic assay, HCT116, average of N1-N3, read-out: GI50 AVG): 17.4 µM
GI50 (HCT116 [1]; HCT-116, clonogenic assay, HCT116, replicate N1, read-out: GI50 N1): 21.1 µM
GI50 (HCT116 [1]; HCT-116, clonogenic assay, HCT116, replicate N2, read-out: GI50 N2): 20.7 µM
GI50 (HCT116 [1]; HCT-116, clonogenic assay, HCT116, replicate N3, read-out: GI50 N3): 10.5 µM
GI50 (HCT15 [2]; HCT-15, 168 h, HCT15 cells, 1 week, read-out: GI50 (clonogenic assay)): 17.4 ± 2.89 µM
GI50 (HCT15 [2]; HCT-15, clonogenic assay, HCT15, average of N1-N3, read-out: GI50 AVG): 17.4 µM
GI50 (HCT15 [2]; HCT-15, clonogenic assay, HCT15, replicate N1, read-out: GI50 N1): 15.6 µM
GI50 (HCT15 [2]; HCT-15, clonogenic assay, HCT15, replicate N2, read-out: GI50 N2): 20.7 µM
GI50 (HCT15 [2]; HCT-15, clonogenic assay, HCT15, replicate N3, read-out: GI50 N3): 15.9 µM
GI50 (SW620 [3]; SW-620, 168 h, SW620 cells, 1 week, read-out: GI50 (clonogenic assay)): 20.6 ± 1.95 µM
GI50 (SW620 [3]; SW-620, clonogenic assay, SW620, average of N1-N3, read-out: GI50 AVG): 20.6 µM
GI50 (SW620 [3]; SW-620, clonogenic assay, SW620, replicate N1, read-out: GI50 N1): 18.9 µM
GI50 (SW620 [3]; SW-620, clonogenic assay, SW620, replicate N2, read-out: GI50 N2): 22.7 µM
GI50 (SW620 [3]; SW-620, clonogenic assay, SW620, replicate N3, read-out: GI50 N3): 20.1 µM
GI50 (HT29 [4]; HT-29, 336 h, HT29 cells, 2 weeks, read-out: GI50 (clonogenic assay)): 9.09 ± 1.71 µM
GI50 (HT29 [4]; HT-29, clonogenic assay, HT29, average of N1-N3, read-out: GI50 AVG): 9.09 µM
GI50 (HT29 [4]; HT-29, clonogenic assay, HT29, replicate N1, read-out: GI50 N1): 8.11 µM
GI50 (HT29 [4]; HT-29, clonogenic assay, HT29, replicate N2, read-out: GI50 N2): 8.09 µM
GI50 (HT29 [4]; HT-29, clonogenic assay, HT29, replicate N3, read-out: GI50 N3): 11.1 µM
glucuronidation / glucuronide formation in plasma (in words) [5]: converted by glucuronidation to CBG-glucoronide
GI50 (HCT116 [6]; HCTl116 cells, 48 hours, read-out: GI50 (MTS assay)): 41.4 ± 1.87 µM
GI50 (HCT116 [6]; MTS assay, HCT116, 48 hours, average of N1-N3, read-out: GI50 AVG): 41.4 µM
GI50 (HCT116 [6]; MTS assay, HCT116, 48 hours, replicate N1, read-out: GI50 N1): 40 µM
GI50 (HCT116 [6]; MTS assay, HCT116, 48 hours, replicate N2, read-out: GI50 N2): 44.1 µM
GI50 (HCT116 [6]; MTS assay, HCT116, 48 hours, replicate N3, read-out: GI50 N3): 40.2 µM
GI50 (HCT15 [7]; HCT15 cells, 48 hours, read-out: GI50 (MTS assay)): 43.6 ± 5.74 µM
GI50 (HCT15 [7]; MTS assay, HCT15, 48 hours, average of N1-N3, read-out: GI50 AVG): 43.6 µM
GI50 (HCT15 [7]; MTS assay, HCT15, 48 hours, replicate N1, read-out: GI50 N1): 50.2 µM
GI50 (HCT15 [7]; MTS assay, HCT15, 48 hours, replicate N2, read-out: GI50 N2): 30.2 µM
GI50 (HCT15 [7]; MTS assay, HCT15, 48 hours, replicate N3, read-out: GI50 N3): 40.7 µM
GI50 (SW620 [8]; MTS assay, SW620, 48 hours, average of N1-N3, read-out: GI50 AVG): 39 µM
GI50 (SW620 [8]; MTS assay, SW620, 48 hours, replicate N1, read-out: GI50 N1): 39.5 µM
GI50 (SW620 [8]; MTS assay, SW620, 48 hours, replicate N2, read-out: GI50 N2): 39.4 µM
GI50 (SW620 [8]; MTS assay, SW620, 48 hours, replicate N3, read-out: GI50 N3): 38 µM
GI50 (SW620 [8]; SW620 cells, 48 hours, read-out: GI50 (MTS assay)): 40 ± 0.84 µM
GI50 (HT29 [9]; HT29 cells, 48 hours, read-out: GI50 (MTS assay)): 43.6 ± 4.02 µM
GI50 (HT29 [9]; MTS assay, HT29, 48 hours, average of N1-N3, read-out: GI50 AVG): 43.6 µM
GI50 (HT29 [9]; MTS assay, HT29, 48 hours, replicate N1, read-out: GI50 N1): 42.6 µM
GI50 (HT29 [9]; MTS assay, HT29, 48 hours, replicate N2, read-out: GI50 N2): 48 µM
GI50 (HT29 [9]; MTS assay, HT29, 48 hours, replicate N3, read-out: GI50 N3): 40.1 µM
